# Assay results: patent US20240398805A1, “QUINAZOLINE DERIVED COMPOUNDS AS EGFR INHIBITORS AND THEIR USES THEREOF” (ACCUTAR BIOTECHNOLOGY INC., priority 2021, published 2024)
# Experiments:
# Type in all cases: cell-based
# [1] = system: HCC827-ASV cells (human EGFR exon 20 insertion mutant A769_D770insASV); assay: Cell growth inhibition (CellTiter-Glo, 3 days) in HCC827-ASV; settings: 72 h, 3 days after administration
# Excerpt: (§1) 1. Preparation of HCC827-SVD, HCC827-ASV and HCC827-YVMA Cell Lines
# (§2) HCC827-ASV and HCC827-YVMA cell lines were generated in the similar approach as HCC827-SVD except that HCC827 cells (ATCC) were first transduced with lentiviral particles expressing codon-optimized human EGFR exon 20 insertion mutant A769_D770insASV and human ERBB2 exon20 insertion mutant A775_G776ins YVMA, respectively.
# (§3) 2. Cell Growth Inhibition for HCC827, HCC827-SVD, HCC827-ASV, HCC827-YVMA and A431.
# (§4) HCC827(ATCC), HCC827-SVD, HCC827-ASV, HCC827-YVMA were seeded in 96-well plates at 5000 cells/well in 90 μl of RPMI growth medium containing 10% FBS and 1% Penicillin Streptomycin. A431 (ATCC) cells were seed in 96-well plates at 5000 cells/well in 90 μl of DMEM growth medium containing 10% FBS and 1% Penicillin Streptomycin. Cells were incubated at 3700 overnight. The following day, the test compound was administered to the cells by using 1 Ox compound stock solution prepared in growth medium at various concentrations. After administration of the compound, cells were then incubated at 3700 for 3 days. Before CeIlTiter-Glo assay, the plates were equilibrated at room temperature for approximately 10 minutes. 100 ul of CelTiter-Glo® Reagent (Promega) was added to each well. The plates were then incubated at room temperature for 10 minutes and luminescence was recorded by EnSpire plate reader (PerkinElmer).
# [2] = system: A431 cells; assay: Cell growth inhibition (CellTiter-Glo, 3 days) in A431; settings: Homo sapiens, A-431, 72 h, 3 days after administration
# Protocol: as §3, §4
# [3] = system: HCC827-SVD cells (human EGFR exon 20 insertion mutant D770_N771 insSVD); assay: Cell growth inhibition (CellTiter-Glo, 3 days) in HCC827-SVD; settings: 72 h, 3 days after administration
# Protocol: as §1
# HCC827-SVD cell line were generated by first transducing HCC827 cells (ATCC) with lentiviral particles expressing codon-optimized human EGFR exon 20 insertion mutant D770_N771 insSVD, and then selecting under 5 μg/ml purimycin treatment for a week.
# The resulting cells were further transduced with lentiviral particles carrying EGFR sgRNA and CAS9 to knockout the endogenous alleles of EGFR, and then selected under 500 μg/ml hygromycin B treatment for two weeks. Single clone was subsequently generated by limiting dilution approach. Endogenous EGFR knockout was confirmed by Sanger sequencing of cell genomic DNA and expression of exogenous mutant EGFR was verified by Western blot analysis.
# as §3, §4
# [4] = system: HCC827-YVMA cells (human ERBB2 exon20 insertion mutant A775_G776ins YVMA); assay: Cell growth inhibition (CellTiter-Glo, 3 days) in HCC827-YVMA; settings: 72 h, 3 days after administration
# Excerpt: as §1, §2, §3, §4
# [5] = system: HCC827 cells; assay: Cell growth inhibition (CellTiter-Glo, 3 days) in HCC827; settings: Homo sapiens, 72 h, 3 days after administration
# Protocol: as §3, §4
SMILES,GI50 [1] [nM],GI50 [2] [nM],GI50 [3] [nM],GI50 [4] [nM],GI50 [5] [nM]
"C=CC(=O)N1CCC(Nc2cc3c(Nc4ccc(Oc5ccn(-c6nc(OC)nc(OC)n6)n5)cc4F)ncnc3cc2OC)CC1 [Compound 31, 1-(4-((4-((4-((1-(4,6-dimethoxy-1,3,5-triazin-2-yl)-1H-pyrazol-3-yl)oxy)-2-fluorophenyl)amino)-7-methoxyquinazolin-6-yl)amino)piperidin-1-yl)prop-2-en-1-one]",30 to 60,< 30,30 to 60,< 30,< 30
"C=CC(=O)N1CCC(Nc2cc3c(Nc4ccc(Oc5ccnc(-c6cnn(C)c6)c5)cc4F)ncnc3cc2OC)CC1 [Compound 34, 1-(4-((4-((2-fluoro-4-((2-(1-methyl-1H-pyrazol-4-yl)pyridin-4-yl)oxy)phenyl)amino)-7-methoxyquinazolin-6-yl)amino)piperidin-1-yl)prop-2-en-1-one]",60 to 100,≥ 1000,30 to 60,60 to 100,600 to 1000
"C=CC(=O)N1CCC(Nc2cc3c(Nc4ccc(Oc5ccnc(-c6cscn6)c5)cc4F)ncnc3cc2OC)CC1 [Compound 41, 1-(4-((4-((2-fluoro-4-((2-(thiazol-4-yl)pyridin-4-yl)oxy)phenyl)amino)-7-methoxyquinazolin-6-yl)amino)piperidin-1-yl)prop-2-en-1-one]",< 30,300 to 600,< 30,< 30,60 to 100
"C=CC(=O)N1CCC(Nc2cc3c(Nc4ccc(Oc5cc(-c6nc(C)no6)ccn5)cc4F)ncnc3cc2OC)CC1 [Compound 44, 1-(4-((4-((2-fluoro-4-((4-(3-methyl-1,2,4-oxadiazol-5-yl)pyridin-2-yl)oxy)phenyl)amino)-7-methoxyquinazolin-6-yl)amino)piperidin-1-yl)prop-2-en-1-one]",30 to 60,100 to 300,30 to 60,< 30,30 to 60
"C=CC(=O)N1CCC(Nc2cc3c(Nc4ccc(Oc5cc(-c6ccc(C)nc6)ccn5)cc4F)ncnc3cc2OC)CC1 [Compound 46, 1-[4-({4-[(2-fluoro-4-{[4-(6-methylpyridin-3-yl)pyridin-2-yl]oxy}phenyl)amino]-7-methoxyquinazolin-6-yl}amino)piperidin-1-yl]prop-2-en-1-one]",60 to 100,≥ 1000,30 to 60,< 30,100 to 300

# Next, values leading:
GI50 [1] [nM],GI50 [2] [nM],GI50 [3] [nM],GI50 [4] [nM],GI50 [5] [nM],SMILES
< 30,≥ 1000,< 30,< 30,100 to 300,"C=CC(=O)N1CCC(Nc2cc3c(Nc4ccc(Oc5ccnc(N6CCOCC6)c5)cc4F)ncnc3cc2OC)CC1 [Compound 35, 1-(4-((4-((2-fluoro-4-((2-morpholinopyridin-4-yl)oxy)phenyl)amino)-7-methoxyquinazolin-6-yl)amino)piperidin-1-yl)prop-2-en-1-one]"
30 to 60,100 to 300,30 to 60,30 to 60,30 to 60,"C=CC(=O)N1CCC(Nc2cc3c(Nc4ccc(Oc5nc(-c6cnc(C7CC7)nc6)cs5)cc4F)ncnc3cc2OC)CC1 [Compound 51, 1-(4-((4-((4-((4-(2-cyclopropylpyrimidin-5-yl)thiazol-2-yl)oxy)-2-fluorophenyl)amino)-7-methoxyquinazolin-6-yl)amino)piperidin-1-yl)prop-2-en-1-one]"
≥ 1000,≥ 1000,≥ 1000,≥ 1000,≥ 1000,"C=CC(=O)N1CC2(CC(Oc3cc4c(Nc5ccc(Oc6ccn(-c7cnc(OC)nc7)n6)cc5F)ncnc4cc3OC)C2)C1 [Compound 79, 1-(6-((4-((2-fluoro-4-((1-(2-methoxypyrimidin-5-yl)-1H-pyrazol-3-yl)oxy)phenyl)amino)-7-methoxyquinazolin-6-yl)oxy)-2-azaspiro [3.3]heptan-2-yl) prop-2-en-1-one]"
